Columns and labels:
[1] = Example 5: plasma pharmacokinetics of EN3202 20 mg in hepatic impairment vs healthy controls; design: AUC point estimate, mild hepatic impairment vs healthy controls / Cmax point estimate, mild hepatic impairment vs healthy controls: unit not given beside the values; conditions: for AUCT / Cmax / T½ / λz / AUC: mean (SD); for Tmax: median (range); for AUC: plasma, single 20 mg EN3202, fasting; for mean (±SD) ratio of plasma metabolite AUC to oxymorphone AUC: AUC converted to molar concentrations; for increase in average AUC relative to controls: arithmetic means; for conversion of oxymorphone to the metabolite reduced by: from mean plasma metabolite ratios
Experimental: (§1) While in the clinic, the subjects were to refrain from strenuous physical activity.
All study medications were supplied by the sponsor. […] A single 20 mg dose EN3202 was administered following an overnight fast (from approximately 22:00 on the evening prior to dose administration) at approximately 08:00, and participants were not allowed to eat until at least four hours after the dose.
All doses were administered with 240 mL of ambient water. Participants were instructed to drink all of the water.
Pharmacokinetic parameters were calculated using model-independent methods.
All pharmacokinetic results are summarized using appropriate descriptive statistics. […] One-way ANOVA was conducted using the model PKVAR=group, where group was mild hepatic impairment, moderate-severe hepatic impairment, or healthy control. Point estimates of the impaired versus control group differences and the corresponding 90% confidence limits were constructed.

[2] = Example 5: urinary excretion of oxymorphone and metabolites in hepatic impairment vs healthy controls; conditions: for mean amount excreted in the urine: percent of administered dose, through 120 hours; for conversion of oxymorphone to the metabolite reduced by: from urine ratios
From the text: as §1

[3] = 10 mg oral oxymorphone, cited from earlier work
[4] = moderate-severe hepatic impairment

With CN1CC[C@]23c4c5ccc(O)c4O[C@H]2C(O)CC[C@@]3(O)[C@H]1C5 (stereo partly drawn) [6-OH-oxymorphone, 6-hydroxy oxymorphone] the AUCT ([1]; Healthy Controls) was 10.80 (9.65) ng · hr/mL, the Cmax ([1]; Healthy Controls) was 0.72 (0.32) ng/mL and the T½ ([1]; Healthy Controls) was 19.19 (11.75) hr. For the same compound, the λz ([1]; Healthy Controls) was 0.0532 (0.0356) hr^−1, the Tmax ([1]; Healthy Controls) was 1.25 (1.0-4.0) hr and the AUC ([1]; Healthy Controls) was 14.76 (11.51) ng · hr/mL. The AUCT ([1]; Mild Impairment) was 14.11 (9.73) ng · hr/mL, the Cmax ([1]; Mild Impairment) was 1.12 (0.79) ng/mL and the T½ ([1]; Mild Impairment) was 17.54 (13.12) hr. The λz ([1]; Mild Impairment) was 0.0545 (0.0269) hr^−1, the Tmax ([1]; Mild Impairment) was 1.25 (0.5-3.0) hr and the AUC ([1]; Mild Impairment) was 17.35 (11.17) ng · hr/mL. For the same compound, the AUCT ([1]; Moderate-Severe Impairment) was 29.25 (20.17) ng · hr/mL, the Cmax ([1]; Moderate-Severe Impairment) was 1.78 (1.00) ng/mL and the T½ ([1]; Moderate-Severe Impairment) was 13.87 (8.02) hr. The λz ([1]; Moderate-Severe Impairment) was 0.0632 (0.0303) hr^−1, the Tmax ([1]; Moderate-Severe Impairment) was 1.75 (1.0-6.0) hr and the AUC ([1]; Moderate-Severe Impairment) was 32.12 (19.80) ng · hr/mL. For the same compound, the “mean (±SD) ratio of plasma metabolite AUC to oxymorphone AUC” value (“mean (±SD) ratio” below) ([1]; controls) was 0.66 (0.30), the “increase in average AUC relative to controls” value ([1]; mild hepatic impairment) was 1.18 fold and the “conversion of oxymorphone to the metabolite reduced by” value ([1]; mild hepatic impairment) was “approximately 17%”. For the same compound, the “AUC increase relative to healthy controls” value ([1]; mild hepatic impairment, log-transformed comparison) was 1.36 fold, the “mean (±SD) ratio” value ([1]; mild impairment) was 0.55 (0.10) and the “Cmax increase relative to healthy controls” value ([1]; mild impairment, log-transformed comparison) was 1.40 fold. For the same compound, the “conversion of oxymorphone to the metabolite reduced by” value [1, 4] was roughly 26%, the “mean (±SD) ratio” value ([1]; moderate-severe impairment) was 0.49 (0.37) and the “increase in average AUC relative to controls” value ([1]; moderate-severe impairment) was 2.18 fold. The “urinary excretion essentially complete by” value ([2]; after single 20 mg dose) was no more than 96 h, the “mean amount excreted in the urine” value ([2]; control group) was 0.25% and the “mean amount excreted in the urine” value ([2]; mild hepatic impairment) was 0.71%. The “mean amount excreted in the urine” value [2, 4] was 0.88%, the “Urinary recovery, conjugated” value [3] was 2.6% and the “Urinary recovery, free” value [3] was roughly 0.3%. The “Urinary recovery, of the dose” value ([3]; free plus conjugated) was “approximately 3%”.
For CN1CC[C@]23c4c5ccc(O[C@@H]6O[C@H](C(=O)O)[C@@H](O)[C@H](O)[C@H]6O)c4O[C@H]2C(=O)CC[C@@]3(O)[C@H]1C5 [Oxymorphone-3-glucuronide, oxymorphone-3-glucuronide], the AUCT ([1]; Healthy Controls) was 2886.8 (883.9) ng · hr/mL, the Cmax ([1]; Healthy Controls) was 234.3 (41.7) ng/mL and the T½ ([1]; Healthy Controls) was 8.89 (3.00) hr. The λz ([1]; Healthy Controls) was 0.0859 (0.0264) hr^−1, the Tmax ([1]; Healthy Controls) was 3.0 (1.5-4.0) hr and the AUC ([1]; Healthy Controls) was 2979.6 (896.1) ng · hr/mL. For the same compound, the AUCT ([1]; Mild Impairment) was 2836.7 (1091.9) ng · hr/mL, the Cmax ([1]; Mild Impairment) was 274.1 (95.8) ng/mL and the T½ ([1]; Mild Impairment) was 8.21 (3.87) hr. The λz ([1]; Mild Impairment) was 0.0974 (0.0367) hr^−1, the Tmax ([1]; Mild Impairment) was 3.0 (3.0-4.0) hr and the AUC ([1]; Mild Impairment) was 2954.1 (1136.2) ng · hr/mL. The AUCT ([1]; Moderate-Severe Impairment) was 2629.3 (1457.8) ng · hr/mL, the Cmax ([1]; Moderate-Severe Impairment) was 212.0 (100.5) ng/mL and the T½ ([1]; Moderate-Severe Impairment) was 7.40 (2.98) hr. The λz ([1]; Moderate-Severe Impairment) was 0.1075 (0.0435) hr^−1, the Tmax ([1]; Moderate-Severe Impairment) was 3.5 (3.0-4.0) hr and the AUC ([1]; Moderate-Severe Impairment) was 2713.9 (1498.6) ng · hr/mL. The “mean (±SD) ratio” value ([1]; controls) was 104.1 (39.5), the “circulating concentrations exceed those of the parent compound by” value ([1]; healthy control group) was “approximately 100 fold” and the “AUC point estimate, mild hepatic impairment vs healthy controls” value ([1]; mild hepatic impairment) was 0.972. For the same compound, the “Cmax point estimate, mild hepatic impairment vs healthy controls” value ([1]; mild hepatic impairment) was 1.133, the “conversion of oxymorphone to the metabolite reduced by” value ([1]; mild hepatic impairment) was “approximately 35%” and the “mean (±SD) ratio” value ([1]; mild impairment) was 67.2 (27.0). The “conversion of oxymorphone to the metabolite reduced by” value [1, 4] was roughly 56%, the “AUC as percent of control” value ([1]; moderate-severe impairment) was “approximately 80%” and the “Cmax as percent of control” value ([1]; moderate-severe impairment) was “approximately 80%”. For the same compound, the “circulating concentrations exceed those of the parent compound by” value ([1]; moderate-severe impairment) was 45 fold, the “mean (±SD) ratio” value ([1]; moderate-severe impairment) was 45.52 (39.2) and the “mean metabolite-to-parent ratio lower than in the control group” value ([1]; moderate-severe impairment, in both plasma and urine) was 2,3 fold. The “mean amount excreted in the urine” value ([2]; control group) was 38.1%, the “mean ratio metabolite:oxymorphone excreted in the urine” value ([2]; healthy controls) was 79.05 and the “mean ratio metabolite:oxymorphone excreted in the urine” value ([2]; mild hepatic impairment) was 39.43. For the same compound, the “conversion of oxymorphone to the metabolite reduced by” value ([2]; mild hepatic impairment) was “approximately 50%”, the “mean amount excreted in the urine” value ([2]; mild hepatic impairment) was 39.3% and the “mean ratio metabolite:oxymorphone excreted in the urine” value [2, 4] was 33.76. The “conversion of oxymorphone to the metabolite reduced by” value [2, 4] was roughly 57% and the “mean amount excreted in the urine” value [2, 4] was 33.7%.

Reference: patent US20080318993A1 (Endo Pharmaceuticals, Inc., priority 2007, published 2008)
